Assay [1] has as its target T1, Human KIF18A (amino acid sequence 1-417) (Homo sapiens, UniProt Q8NI77).
T1 construct: purchased Viva Biotech (Shanghai) Ltd
The assay is described as follows: Enzyme activity detection experiment (ADP-Glo, KIF18A with tubulin and ATP). It is filed as biochemical. As to conditions: tubulin 60 μg/mL, ATP 25 μM, KIF18A protein 2.5 nM, 120 minutes at ambient temperature, ADP-Glo chemiluminescence. As for the experimental part: Materials: Human KIF18A (amino acid sequence 1-417) was obtained from Viva Biotech (Shanghai) Ltd., and the ADP-Glo™ protein kinase kit was acquired from Promega, USA. Tubulin was sourced from Cytoskeleton, USA, while a 384-well assay plate and the Envision multifunctional microplate reader were obtained from PerkinElmer, USA.
Enzyme activity detection: The compound powder in DMSO was firstly dissolved to prepare a 10 mM stock solution. Next, gradient dilutions were prepared in the microplate to achieve final concentrations of […]. Sequentially, 2.5 μL of tubulin (60 μg/mL), the compound, ATP (25 μM), and KIF18A protein (2.5 nM) were added to each well, and the reaction was incubated at ambient temperature for 120 minutes. After the reaction, 10 μL of ADP-Glo™ reagent was added to each well and incubated at ambient temperature for 30 minutes. Subsequently, 20 μL of detection reagent was added to each well and incubated for an additional 30 minutes in the dark. Finally, chemiluminescence detection was performed using the PerkinElmer Envision multifunctional microplate reader.

In a further assay the test system is OVCAR3 cells. The assay is described as follows: Cell proliferation activity test, OVCAR3 (CyQUANT Direct). The format is cell-based. To be noted: Homo sapiens, OVCAR-3, 72 h, 3 days incubation, CyQUANT fluorescence detection, read-out: OVCAR-3 Cell Viability_IC50_nM. As for the experimental part: Materials and Cells: OVCAR3 cells were purchased from Nanjing Cobioer Biosciences Co., Ltd. RPMI-1640 medium, fetal bovine serum, and the CyQUANT Direct Cell Proliferation Assay kit were purchased from Thermo Fisher Scientific, USA; 96-well cell culture plates were sourced from Corning, USA.
Cell Culture: Culture OVCAR3 cells with RPMI-1640 medium containing […] and incubate them in a […] incubator at 37° C. Only cells in the logarithmic growth phase can be used for the test.
Inoculate OVCAR3 cells into a 96-well cell culture plate at 90 μL per well and incubate overnight in a […] incubator at 37° C. Dissolve the compound powder in DMSO to prepare a stock solution of 10 mM. Then perform gradient dilution for the compounds in the microplate to achieve a final concentration of 0-10 μM. Add 10 μL of cell culture medium containing compounds to each well to make the final DMSO content 0.20%. Incubate the cell plates in a […] incubator at 37° C. for 3 days. Add 100 μL of CyQUANT detection reagent to each well, react at 37° C. for 60 min, and perform fluorescence detection using the PerkinElmer Envision.

T1 sequence (Q8NI77 1-417): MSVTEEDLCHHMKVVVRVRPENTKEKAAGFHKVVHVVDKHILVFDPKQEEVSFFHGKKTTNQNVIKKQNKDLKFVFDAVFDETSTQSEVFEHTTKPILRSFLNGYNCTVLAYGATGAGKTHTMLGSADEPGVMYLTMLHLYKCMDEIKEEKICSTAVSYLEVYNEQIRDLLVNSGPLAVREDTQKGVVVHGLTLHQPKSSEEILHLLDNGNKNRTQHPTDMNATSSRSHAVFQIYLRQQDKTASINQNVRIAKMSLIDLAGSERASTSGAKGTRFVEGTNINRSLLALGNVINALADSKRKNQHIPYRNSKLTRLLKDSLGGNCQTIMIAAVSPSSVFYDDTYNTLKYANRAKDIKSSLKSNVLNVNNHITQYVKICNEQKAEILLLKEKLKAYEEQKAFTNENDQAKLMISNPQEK
T1 sequence (Q2XVP4 whole entry partner): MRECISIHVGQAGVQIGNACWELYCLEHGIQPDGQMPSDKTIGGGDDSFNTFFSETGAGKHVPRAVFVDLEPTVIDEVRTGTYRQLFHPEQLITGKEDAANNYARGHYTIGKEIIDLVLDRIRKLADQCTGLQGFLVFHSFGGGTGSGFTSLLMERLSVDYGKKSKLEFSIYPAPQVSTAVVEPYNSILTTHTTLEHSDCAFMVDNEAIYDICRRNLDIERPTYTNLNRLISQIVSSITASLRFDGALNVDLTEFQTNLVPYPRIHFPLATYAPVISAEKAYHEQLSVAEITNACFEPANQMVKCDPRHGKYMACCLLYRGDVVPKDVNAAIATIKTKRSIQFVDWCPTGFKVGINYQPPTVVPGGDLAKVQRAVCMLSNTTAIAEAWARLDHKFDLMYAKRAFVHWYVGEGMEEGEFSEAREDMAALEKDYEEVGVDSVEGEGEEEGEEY
T1 sequence (P02554 whole entry partner): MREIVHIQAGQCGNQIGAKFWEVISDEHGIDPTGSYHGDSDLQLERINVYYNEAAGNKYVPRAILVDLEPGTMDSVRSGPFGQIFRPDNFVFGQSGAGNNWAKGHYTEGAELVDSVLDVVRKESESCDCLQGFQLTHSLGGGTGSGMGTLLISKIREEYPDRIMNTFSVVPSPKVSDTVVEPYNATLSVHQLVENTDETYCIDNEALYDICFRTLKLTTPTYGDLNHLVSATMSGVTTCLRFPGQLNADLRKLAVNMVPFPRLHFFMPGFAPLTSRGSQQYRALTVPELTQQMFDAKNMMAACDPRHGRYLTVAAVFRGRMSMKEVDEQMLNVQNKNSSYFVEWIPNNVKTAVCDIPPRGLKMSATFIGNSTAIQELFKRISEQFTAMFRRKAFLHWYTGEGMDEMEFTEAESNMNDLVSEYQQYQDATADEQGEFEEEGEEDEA

With `O=S(=O)(CCO)Nc1ccc(-n2cc(-c3cc(OC4CCOC4)nc(N4CCC(F)(F)CC4)n3)nn2)c(N2CCC3(CC2)CC3)c1` (centres unmarked) [Example 96, N-(3-{6-azaspiro[2.5]octan-6-yl}-4-{4-[2-(4,4-difluoropiperidin-1-yl)-6-(oxolan-3-yloxy)pyrirmidin-4-yl]-1H-1,2,3-triazol-1-yl}phenyl)-2-hydroxyethane-1-sulfonamide], the IC50 in assay [1] is 117 nM.
Consider `Cc1cc(-c2cn(-c3ccc(NS(=O)(=O)CCO)cc3N3CCC4(CC3)CC4)nn2)nc(C2COCCO2)n1` (centres unmarked) [Example 40, N-(4-(4-(2-(1,4-dioxan-2-yl)-6-methylpyrimidin-4-yl)-1H-1,2,3-triazol-1-yl)-3-(6-azaspiro[2.5]octan-6-yl)phenyl)-2-hydroxyethane-1-sulfonamide], for which the IC50 is > 3000 nM in assay [1] and 411 nM in the assay with OVCAR3 cells.
For `Cc1cc(-c2cn(-c3ccc(NS(=O)(=O)CCO)cc3N3CCC4(CC3)CC4)nn2)nc(N2CC3CC2CO3)n1` (centres unmarked) [Example 47, N-(4-(4-(2-(2-oxa-5-azabicyclo[2.2.1]heptan-5-yl)-6-methylpyrimidin-4-yl)-1H-1,2,3-triazol-1-yl)-3-(6-azaspiro[2.5]octan-6-yl)phenyl)-2-hydroxyethane-1-sulfonamide] the same measures were 64 nM and 37 nM.
In assay [1], `C[C@H](CO)S(=O)(=O)Nc1ccc(-n2cc(-c3cc(N4CCC(F)(F)CC4)c4ncccc4c3)nn2)c(N2CCC3(CC2)CC3)c1` [Example 99, (2R)—N-(3-(6-azaspiro[2.5]octan-6-yl)-4-{4-[8-(4,4-difluoropiperidin-1-yl)quinolin-6-yl]-1H-1,2,3-triazol-1-yl}phenyl)-1-hydroxypropane-2-sulfonamide] gave an IC50 of 214 nM.
On to `Cc1cc(-c2nnc(-c3ccc(NS(=O)(=O)C(C)(C)CO)cc3N3CCC4(CC3)CC4)o2)cc(N2CCC(F)(F)CC2)n1` [Example 104, N-(4-(5-(2-(4,4-difluoropiperidin-1-yl)-6-methylpyridin-4-yl)-1,3,4-oxadiazol-2-yl)-3-(6-azaspiro[2.5]octan-6-yl)phenyl)-1-hydroxy-2-methylpropane-2-sulfonamide], for which the IC50 in assay [1] was 83 nM.
Turning to `C[C@@H](CO)S(=O)(=O)Nc1ccc(-n2cc(-c3cc(N4CCC(F)(F)CC4)c4ncccc4c3)nn2)c(N2CCC3(CC2)CC3)c1` [Example 100, (2S)—N-(3-{6-azaspiro[2.5]octan-6-yl}-4-{4-[8-(4,4-difluoropiperidin-1-yl)quinolin-6-yl]-1H-1,2,3-triazol-1-yl}phenyl)-1-hydroxypropane-2-sulfonamide], the IC50 in assay [1] amounted to 187 nM.
The same measure, in the same setting: for `COc1cc(-c2nnc(-c3ccc(NS(=O)(=O)C(C)(C)CO)cc3N3CCC4(CC3)CC4)o2)cc(N2CCC(F)(F)CC2)n1` [Example 105, N-(4-(5-(2-(4,4-difluoropiperidin-1-yl)-6-methoxypyridin-4-yl)-1,3,4-oxadiazol-2-yl)-3-(6-azaspiro[2.5]octan-6-yl)phenyl)-1-hydroxy-2-methylpropane-2-sulfonamide] the value was 62 nM.
For the molecule `Cc1cc(-c2cc(-c3ccc(NS(=O)(=O)CCO)cc3N3CCC4(CC3)CC4)on2)nc(N2CCC(F)(F)CC2)n1` [Example 5, N-(4-(3-(2-(4,4-difluoropiperidin-1-yl)-6-methylpyrimidin-4-yl)isoxazol-5-yl)-3-(6-azaspiro[2.5]octan-6-yl)phenyl)-2-hydroxyethane-1-sulfonamide], the IC50 in assay [1] came to 1050 nM; in the assay on OVCAR3 cells it was 389 nM.
`CCC(CO)S(=O)(=O)Nc1ccc(-n2cc(-c3cc(C)nc(N4CCC(F)(F)CC4)n3)nn2)c(N2CCC3(CC2)CC3)c1` (centres unmarked) [Example 98, N-(3-{6-azaspiro[2.5]octan-6-yl}-4-{4-[2-(4,4-difluoropiperidin-1-yl)-6-methylpyrimidin-4-yl]-1H-1,2,3-triazol-1-yl}phenyl)-1-hydroxybutane-2-sulfonamide]: the IC50 in assay [1] is 154 nM.
Still for that read-out and setting: the result for `O=S(=O)(CCO)Nc1ccc(-n2cc(-c3cc(OCC4CCOC4)nc(N4CCC(F)(F)CC4)n3)nn2)c(N2CCC3(CC2)CC3)c1` (centres unmarked) [Example 97, N-(3-(6-azaspiro[2.5]octan-6-yl)-4-{4-[2-(4,4-difluoropiperidin-1-yl)-6-[(oxolan-3-yl)methoxy]pyrimidin-4-yl]-1-1,2,3-triazol-1-yl}phenyl)-2-hydroxyethane-1-sulfonamide] reads 234 nM; that for `COc1cc(-c2nnc(-c3ccc(NS(=O)(=O)C(C)CO)cc3N3CCC4(CC3)CC4)o2)cc(N2CCC(F)(F)CC2)n1` (centres unmarked) [Example 102, N-(4-(5-(2-(4,4-difluoropiperidin-1-yl)-6-methoxypyridin-4-yl)-1,3,4-oxadiazol-2-yl)-3-(6-azaspiro[2.5]octan-6-yl)phenyl)-1-hydroxypropane-2-sulfonamide], 60 nM.
As to `O=S(=O)(CCO)Nc1ccc(-n2cc(-c3cc(OCCO)nc(N4CCC(F)(F)CC4)n3)nn2)c(N2CCC3(CC2)CC3)c1` [Example 95, N-(3-{6-azaspiro[2.5]octan-6-yl}-4-{4-[2-(4,4-difluoropiperidin-1-yl)-6-(2-hydroxyethoxy)pyrimidin-4-yl]-1H-1,2,3-triazol-1-yl}phenyl)-2-hydroxyethane-1-sulfonamide], the IC50 in assay [1] worked out at 73 nM; in the assay with OVCAR3 cells, 7 nM.
As for `Cc1ccc2cc(-c3cn(-c4ccc(NS(=O)(=O)CCO)cc4N4CCC5(CC4)CC5)nn3)c(F)c(N3CCC(F)(F)CC3)c2n1` [Example 75, N-(3-{6-azaspiro[2.5]octan-6-yl}-4-{4-[8-(4,4-difluoropiperidin-1-yl)-7-fluoro-2-methylquinolin-6-yl]-1H-1,2,3-triazol-1-yl}phenyl)-2-hydroxyethane-1-sulfonamide], the IC50 in assay [1] was > 3000 nM; in the assay on OVCAR3 cells it was 300 nM.
Take `Cc1cc2nc(-c3ccc(NS(=O)(=O)CCO)cc3N3CCC4(CC3)CC4)[nH]c2c(N2CCC(F)(F)CC2)n1` [Example 106, N-(4-(4-(4,4-difluoropiperidin-1-yl)-6-methyl-3H-imidazo[4,5-c]pyridin-2-yl)-3-(6-azaspiro[2.5]octan-6-yl)phenyl)-2-hydroxyethane-1-sulfonamide]: the IC50 in assay [1] was found to be 210 nM.
Still for that read-out and setting: for `Cc1cc(-c2nnc(-c3ccc(NS(=O)(=O)C(C)CO)cc3N3CCC4(CC3)CC4)o2)cc(N2CCC(F)(F)CC2)n1` (centres unmarked) [Example 103, N-(4-(5-(2-(4,4-difluoropiperidin-1-yl)-6-methylpyridin-4-yl)-1,3,4-oxadiazol-2-yl)-3-(6-azaspiro[2.5]octan-6-yl)phenyl)-1-hydroxypropane-2-sulfonamide] the value was 73 nM.
For `CC(C)(CO)S(=O)(=O)Nc1ccc(-n2cc(-c3cc(N4CCC(F)(F)CC4)c4ncccc4c3)nn2)c(N2CCC3(CC2)CC3)c1` [Example 101, N-(4-(4-(8-(4,4-difluoropiperidin-1-yl)quinolin-6-yl)-1H-1,2,3-triazol-1-yl)-3-(6-azaspiro[2.5]octan-6-yl)phenyl)-1-hydroxy-2-methylpropane-2-sulfonamide], the IC50 in assay [1] worked out at 320 nM.
For the molecule `Cc1cc(-c2cn(-c3ccc(NS(=O)(=O)CCO)cc3N3CCC4(CC3)CC4)nn2)nc(C2=COCCO2)n1` [Example 38, N-(4-(4-(2-(5,6-dihydro-1,4-dioxin-2-yl)-6-methylpyrimidin-4-yl)-1H-1,2,3-triazol-1-yl)-3-(6-azaspiro[2.5]octan-6-yl)phenyl)-2-hydroxyethane-1-sulfonamide], the IC50 turned out to be 452 nM in assay [1] and 424 nM in the assay with OVCAR3 cells.

The values are drawn from US20250304551A1 (SHANGHAI APEIRON THERAPEUTICS COMPANY LIMITED, priority 2022, published 2025).
